Source: ChEMBL document CHEMBL1201862, “PubChem BioAssay data set” (2004)
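Following 48 hours of exposure in 96-well plates, responses at five concentrations were used to interpolate endpoints linearly. GI50 = concentration required for 50% inhibition of growth.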 The source made the active and inactive calls. No stated cut-off is given here; in the data, active = GI50 up to about 1.1 µM and inactive = higher.

Key:
Test in all cases: inhibition of tumour cell growth, NCI panel, 48 h
786-0 = system: 786-0
A498 = system: A498
A549 = system: A549
ACHN = system: ACHN
BT-549 = system: BT-549
DU-145 = system: DU-145
EKVX = system: EKVX
HCT-116 = system: HCT-116
HCT-15 = system: HCT-15
HL-60 = system: HL-60
HOP-62 = system: HOP-62
HOP-92 = system: HOP-92
HT-29 = system: HT-29
Hs-578T = system: Hs-578T
IGROV-1 = system: IGROV-1
K562 = system: K562
KM12 = system: KM12
LOX IMVI = system: LOX IMVI
M14 = system: M14
MCF7 = system: MCF7
MDA-MB-231 = system: MDA-MB-231
MDA-MB-435 = system: MDA-MB-435
MDA-N = system: MDA-N
MOLT-4 = system: MOLT-4
Malme-3M = system: Malme-3M
NCI-H226 = system: NCI-H226
NCI-H460 = system: NCI-H460
NCI-H522 = system: NCI-H522
OVCAR-3 = system: OVCAR-3
OVCAR-4 = system: OVCAR-4
OVCAR-5 = system: OVCAR-5
OVCAR-8 = system: OVCAR-8
PC-3 = system: PC-3
RPMI-8226 = system: RPMI-8226
SF-268 = system: SF-268
SF-295 = system: SF-295
SF-539 = system: SF-539
SK-MEL-28 = system: SK-MEL-28
SK-MEL-2 = system: SK-MEL-2
SK-OV-3 = system: SK-OV-3
SN12C = system: SN12C
SNB-19 = system: SNB-19
SNB-75 = system: SNB-75
SR = system: SR
SW-620 = system: SW-620
T47D = system: T47D
TK-10 = system: TK-10
U-251 = system: U-251
UACC-257 = system: UACC-257
UACC-62 = system: UACC-62
UO-31 = system: UO-31
CAKI-1 = system: CAKI-1
CCRF-CEM = system: CCRF-CEM
COLO 205 = system: COLO 205
NCI-H23 = system: NCI-H23
NCI/ADR-RES = system: NCI/ADR-RES
RXF 393 = system: RXF 393
SK-MEL-5 = system: SK-MEL-5

In the case of O=C1CC2C(=O)c3ccccc3CC2c2ccccc21 (stereo not given), the GI50 (786-0) is reported as 92.3 µM (inactive), the GI50 (A498) is reported as 48.8 µM (inactive) and the GI50 (A549) is reported as 36.3 µM (inactive). The GI50 (ACHN) was 30.7 µM (inactive), the GI50 (BT-549) was 81.8 µM (inactive) and the GI50 (DU-145) was 50.5 µM (inactive). For the same molecule, the GI50 (EKVX) was 46.1 µM (inactive), the GI50 (HCT-116) was 38.6 µM (inactive) and the GI50 (HCT-15) was 24.3 µM. The GI50 (HL-60) was 17.9 µM (inactive), the GI50 (HOP-62) was > 100 µM (inactive) and the GI50 (HOP-92) was 16.4 µM (inactive). The GI50 (HT-29) was 44.9 µM (inactive), the GI50 (Hs-578T) was > 100 µM (inactive) and the GI50 (IGROV-1) was 27 µM (inactive). For the same molecule, the GI50 (K562) was 21.3 µM (inactive), the GI50 (KM12) was 40.6 µM (inactive) and the GI50 (LOX IMVI) was 38.5 µM (inactive). The GI50 (M14) was 69.5 µM (inactive), the GI50 (MCF7) was 37.2 µM (inactive) and the GI50 (MDA-MB-231) was > 100 µM (inactive). The GI50 (MDA-MB-435) was 24.1 µM (inactive), the GI50 (MDA-N) was 36.3 µM (inactive) and the GI50 (MOLT-4) was 22.4 µM (inactive). For the same molecule, the GI50 (Malme-3M) was 39 µM (inactive), the GI50 (NCI-H226) was 36.6 µM (inactive) and the GI50 (NCI-H460) was 33 µM (inactive). For the same molecule, the GI50 (NCI-H522) was 57.4 µM (inactive), the GI50 (OVCAR-3) was 26.7 µM (inactive) and the GI50 (OVCAR-4) was 29.5 µM (inactive). For the same molecule, the GI50 (OVCAR-5) was > 100 µM (inactive), the GI50 (OVCAR-8) was 39.5 µM (inactive) and the GI50 (PC-3) was 43 µM (inactive). The GI50 (RPMI-8226) was 15.2 µM (inactive), the GI50 (SF-268) was 56.8 µM (inactive) and the GI50 (SF-295) was 49.2 µM (inactive). The GI50 (SF-539) was 32.7 µM (inactive), the GI50 (SK-MEL-28) was 70.6 µM (inactive) and the GI50 (SK-MEL-2) was 87.1 µM (inactive). The GI50 (SK-OV-3) was > 100 µM (inactive), the GI50 (SN12C) was 55.3 µM (inactive) and the GI50 (SNB-19) was > 100 µM (inactive). The GI50 (SNB-75) was 6.49 µM (inactive), the GI50 (SR) was 13.8 µM (inactive) and the GI50 (SW-620) was 49 µM (inactive). The GI50 (T47D) was 49.2 µM (inactive), the GI50 (TK-10) was 87.9 µM (inactive) and the GI50 (U-251) was 57.4 µM (inactive). For the same molecule, the GI50 (UACC-257) was 24.8 µM (inactive), the GI50 (UACC-62) was 35.7 µM (inactive) and the GI50 (UO-31) was 12 µM (inactive).
In the case of NC(=O)c1c(NC=O)ncn1C1OCC(O)C(O)C1O (stereo not given), the GI50 (786-0) is reported as > 100 µM (inactive), the GI50 (A549) is reported as > 100 µM (inactive) and the GI50 (ACHN) is reported as > 100 µM (inactive). For the same molecule, the GI50 (BT-549) was > 100 µM (inactive), the GI50 (CAKI-1) was > 100 µM (inactive) and the GI50 (CCRF-CEM) was > 100 µM (inactive). The GI50 (COLO 205) was > 100 µM (inactive), the GI50 (DU-145) was > 100 µM (inactive) and the GI50 (EKVX) was > 100 µM (inactive). For the same molecule, the GI50 (HCT-116) was > 100 µM (inactive), the GI50 (HCT-15) was greater than 100 µM and the GI50 (HL-60) was > 100 µM (inactive). For the same molecule, the GI50 (HOP-62) was > 100 µM (inactive), the GI50 (HOP-92) was > 100 µM (inactive) and the GI50 (HT-29) was > 100 µM (inactive). For the same molecule, the GI50 (Hs-578T) was > 100 µM (inactive), the GI50 (IGROV-1) was > 100 µM (inactive) and the GI50 (K562) was > 100 µM (inactive). The GI50 (KM12) was > 100 µM (inactive), the GI50 (LOX IMVI) was > 100 µM (inactive) and the GI50 (MDA-MB-231) was > 100 µM (inactive). The GI50 (MDA-MB-435) was > 100 µM (inactive), the GI50 (MDA-N) was > 100 µM (inactive) and the GI50 (MOLT-4) was > 100 µM (inactive). For the same molecule, the GI50 (Malme-3M) was > 100 µM (inactive), the GI50 (NCI-H226) was > 100 µM (inactive) and the GI50 (NCI-H23) was > 100 µM (inactive). The GI50 (NCI-H460) was > 100 µM (inactive), the GI50 (NCI-H522) was > 100 µM (inactive) and the GI50 (NCI/ADR-RES) was > 100 µM (inactive). For the same molecule, the GI50 (OVCAR-3) was > 100 µM (inactive), the GI50 (OVCAR-4) was > 100 µM (inactive) and the GI50 (OVCAR-5) was > 100 µM (inactive). For the same molecule, the GI50 (OVCAR-8) was > 100 µM (inactive), the GI50 (PC-3) was > 100 µM (inactive) and the GI50 (RPMI-8226) was > 100 µM (inactive). For the same molecule, the GI50 (RXF 393) was > 100 µM (inactive), the GI50 (SF-268) was > 100 µM (inactive) and the GI50 (SF-295) was > 100 µM (inactive). The GI50 (SF-539) was > 100 µM (inactive), the GI50 (SK-MEL-2) was > 100 µM (inactive) and the GI50 (SK-MEL-5) was > 100 µM (inactive). The GI50 (SK-OV-3) was > 100 µM (inactive), the GI50 (SN12C) was > 100 µM (inactive) and the GI50 (SNB-19) was > 100 µM (inactive). The GI50 (SNB-75) was > 100 µM (inactive), the GI50 (SR) was > 100 µM (inactive) and the GI50 (SW-620) was > 100 µM (inactive). The GI50 (T47D) was > 100 µM (inactive), the GI50 (TK-10) was > 100 µM (inactive) and the GI50 (U-251) was > 100 µM (inactive). The GI50 (UACC-257) was > 100 µM (inactive), the GI50 (UACC-62) was > 100 µM (inactive) and the GI50 (UO-31) was > 100 µM (inactive).
